Laboratory results from ChEMBL document CHEMBL4118022, “Unguiculin A and Ptilomycalins E-H, Antimalarial Guanidine Alkaloids from the Marine Sponge Monanchora unguiculata” (J Nat Prod, 2017).

Key:
[1] = system: Plasmodium falciparum; experiment: Antiplasmodial activity against Plasmodium falciparum 3D7 erythrocytic stage assessed as reduction in parasitic LDH activity measured after 48 hrs by colorimetric method; type: functional, organism-based; details: 3D7, 48 h
[2] = system: KB; experiment: Cytotoxicity against human KB cells after 72 hrs by CellTiter96 AQueous one solution assay; type: cell-based
[3] = Selectivity index, ratio of IC50 for human KB cells to IC50 for Plasmodium falciparum 3D7 erythrocytic stage; type: toxicity; details: KB cells versus Plasmodium falciparum 3D7 erythrocytic stage, read-out: Ratio IC50

Compound | IC50 [1] | IC50 [2] | selectivity ratio [3]
CC[C@@H]1C=CCC[C@]2(C[C@H]3CC[C@H]4[C@@H](C(=O)OCCCCCCCCCCCCCCCC5=NCCCN5CC(O)CCN)[C@@]5(CCC[C@H](C)O5)NC(=N2)N34)O1 (some centres undefined) | 0.24 µM | 1.17 µM | 4.9
CC[C@@H]1C=CCC[C@]2(C[C@H]3CC[C@H]4[C@@H](C(=O)OCCCCCCCCCCCCCCCC(=O)N(CCCCNC(=N)N)CCCNC(=N)N)[C@@]5(CCC[C@H](C)O5)NC(=N2)N34)O1 | 0.35 µM | 0.85 µM | 2.4
CC[C@@H]1C=CCC[C@]2(C[C@H]3CC[C@H]4[C@@H](C(=O)OCCCCCCCCCCCCCCCC(=O)N(CCCCNC(=N)N)CCCNC=O)[C@@]5(CCC[C@H](C)O5)NC(=N2)N34)O1 | 0.23 µM | 1.61 µM | 7
CCCCCCCCCCCCCCCC(=O)N(CCCCNC(=N)N)CCCNC(=N)N | 12.9 µM | 7.66 µM | 0.6
CC[C@@H]1C=CCC[C@]2(C[C@H]3CC[C@H]4[C@@H](C(=O)OCCCCCCCCCCCCCCCC(=O)O)[C@@]5(CCC[C@H](C)O5)NC(=N2)N34)O1 | – | 8.8 µM | –
C[C@@H]1CC[C@H]2[C@@H](C)C(=O)O[C@@H]3O[C@@]4(C)CC[C@@H]1[C@]32OO4 [ARTEMISININ] | 0.004 µM | – | –
